Experimental data published in ChEMBL document CHEMBL3137667, “[Drug-induced liver injury; fourteenth updated edition of the bibliographic database of liver injuries and related drugs]” (Gastroenterol Clin Biol, 2004).

Assays:
[1] = Highest frequency of moderate liver toxicity observed during clinical trials, expressed as a percentage. [column '% BIOL' in source]; details: human
[2] = Highest frequency of acute liver toxicity observed during clinical trials, expressed as a percentage. [column '% AIGUE' in source]; details: human
[3] = human, serum
[4] = human, serum; remark: listed apart in the source
[5] = human
[6] = human; remark: listed apart in the source
[7] = human; remark: listed apart in the source
[8] = human, serum, 4383 h
[9] = human; remark: listed apart in the source
[10] = human; remark: listed apart in the source
[11] = human; remark: listed apart in the source
[12] = human; remark: listed apart in the source
[13] = human; remark: listed apart in the source
[14] = human; remark: listed apart in the source
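For Hepatotoxicity (association with vascular disease) in this document: count of indexed literature references reporting vascular liver injury in humans, e.g. peliosis hepatitis, hepatic veno-occlusive disease or Budd-Chiari syndrome.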
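For Hepatotoxicity (benign tumour) in this document: value is a count of indexed literature references citing a benign tumour confirmed by histopathology.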
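For Hepatotoxicity (choleostasis) in this document: human cholestatic liver injury, shown by histopathology or by peak ALT or AST elevation over alkaline phosphatase ratio below 2, value counts indexed literature reports.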
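For Hepatotoxicity (chronic liver disease) in this document: chronic liver injury confirmed by histopathology or persistently raised serum aminotransferase activity beyond 6 months, value given as the count of indexed literature references.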
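For Hepatotoxicity (cirrhosis) in this document: value is a count of indexed literature references reporting cirrhosis confirmed by histopathology.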
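For Hepatotoxicity (cytolytic) in this document: human cytolytic liver injury, shown by histopathology or by a ratio above 5 of peak ALT or AST elevation to alkaline phosphatase elevation, value counts indexed references.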
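For Hepatotoxicity (granulomatous hepatitis) in this document: value is a count of indexed literature references reporting granulomatous liver disease confirmed by histopathology.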
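For Hepatotoxicity (malignant tumour) in this document: malignant tumour confirmed by histopathology, value gives the count of indexed literature references reporting it.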
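For Hepatotoxicity (severe hepatitis) in this document: human clinical data: severe hepatitis, meaning potentially life-threatening liver failure or clinically observed cases, the value counts how many indexed literature references report it.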
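For Hepatotoxicity (steatosis) in this document: steatosis confirmed by histopathology, value is the count of indexed references.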

## CC(C)(C)NC(=O)[C@H]1CC[C@H]2[C@@H]3CC[C@H]4NC(=O)C=C[C@]4(C)[C@H]3CC[C@]12C [FINASTERIDE]
[1]
  Hepatotoxicity (moderate): 9%
[2]
  Hepatotoxicity (acute): 0%
[3]
  Hepatotoxicity (moderate): 1
[4]
  Hepatotoxicity (acute): 0
[5]
  Hepatotoxicity (cytolytic): 0
[6]
  Hepatotoxicity (choleostasis): 0
[7]
  Hepatotoxicity (severe hepatitis): 0
[8]
  Hepatotoxicity (chronic liver disease): 0
[9]
  Hepatotoxicity (cirrhosis): 0
[10]
  Hepatotoxicity (granulomatous hepatitis): 0
[11]
  Hepatotoxicity (association with vascular disease): 0
[12]
  Hepatotoxicity (steatosis): 0
[13]
  Hepatotoxicity (malignant tumour): 0
[14]
  Hepatotoxicity (benign tumour): 0

## CN1CCN(CC(=O)N2c3ccccc3C(=O)Nc3cccnc32)CC1 [PIRENZEPINE]
[1]
  Hepatotoxicity (moderate): 0.7%
[2]
  Hepatotoxicity (acute): 0%
[3]
  Hepatotoxicity (moderate): 2
[4]
  Hepatotoxicity (acute): 0
[5]
  Hepatotoxicity (cytolytic): 0
[6]
  Hepatotoxicity (choleostasis): 0
[7]
  Hepatotoxicity (severe hepatitis): 0
[8]
  Hepatotoxicity (chronic liver disease): 0
[9]
  Hepatotoxicity (cirrhosis): 0
[10]
  Hepatotoxicity (granulomatous hepatitis): 0
[11]
  Hepatotoxicity (association with vascular disease): 0
[12]
  Hepatotoxicity (steatosis): 0
[13]
  Hepatotoxicity (malignant tumour): 0
[14]
  Hepatotoxicity (benign tumour): 0

## CC(N)C(=O)OC(C)(C)Cc1ccc(Cl)cc1 (centres undefined) [ALAPROCLATE]
[1]
  Hepatotoxicity (moderate): 0%
[2]
  Hepatotoxicity (acute): 0%
[3]
  Hepatotoxicity (moderate): 1
[4]
  Hepatotoxicity (acute): 0
[5]
  Hepatotoxicity (cytolytic): 0
[6]
  Hepatotoxicity (choleostasis): 0
[7]
  Hepatotoxicity (severe hepatitis): 0
[8]
  Hepatotoxicity (chronic liver disease): 0
[9]
  Hepatotoxicity (cirrhosis): 0
[10]
  Hepatotoxicity (granulomatous hepatitis): 0
[11]
  Hepatotoxicity (association with vascular disease): 0
[12]
  Hepatotoxicity (steatosis): 0
[13]
  Hepatotoxicity (malignant tumour): 0
[14]
  Hepatotoxicity (benign tumour): 0

## CCc1nc(N)nc(N)c1-c1ccc(Cl)cc1.Nc1ccc(S(=O)(=O)c2ccc(N)cc2)cc1
[1]
  Hepatotoxicity (moderate): 25.3%
[2]
  Hepatotoxicity (acute): 2.9%
[3]
  Hepatotoxicity (moderate): 1
[4]
  Hepatotoxicity (acute): 3
[5]
  Hepatotoxicity (cytolytic): 1
[6]
  Hepatotoxicity (choleostasis): 0
[7]
  Hepatotoxicity (severe hepatitis): 0
[8]
  Hepatotoxicity (chronic liver disease): 0
[9]
  Hepatotoxicity (cirrhosis): 0
[10]
  Hepatotoxicity (granulomatous hepatitis): 0
[11]
  Hepatotoxicity (association with vascular disease): 0
[12]
  Hepatotoxicity (steatosis): 0
[13]
  Hepatotoxicity (malignant tumour): 0
[14]
  Hepatotoxicity (benign tumour): 0

## O=C(O)C(=O)O [OXALIC ACID]
[1]
  Hepatotoxicity (moderate): 0%
[2]
  Hepatotoxicity (acute): 0%
[3]
  Hepatotoxicity (moderate): 1
[4]
  Hepatotoxicity (acute): 0
[5]
  Hepatotoxicity (cytolytic): 0
[6]
  Hepatotoxicity (choleostasis): 0
[7]
  Hepatotoxicity (severe hepatitis): 0
[8]
  Hepatotoxicity (chronic liver disease): 0
[9]
  Hepatotoxicity (cirrhosis): 0
[10]
  Hepatotoxicity (granulomatous hepatitis): 0
[11]
  Hepatotoxicity (association with vascular disease): 0
[12]
  Hepatotoxicity (steatosis): 0
[13]
  Hepatotoxicity (malignant tumour): 0
[14]
  Hepatotoxicity (benign tumour): 0

## COc1ccc(CCN(C)CCCC(C#N)(c2cc(OC)c(OC)c(OC)c2)C(C)C)cc1OC (centres undefined) [GALLOPAMIL]
[1]
  Hepatotoxicity (moderate): 4%
[2]
  Hepatotoxicity (acute): 0%
[3]
  Hepatotoxicity (moderate): 1
[4]
  Hepatotoxicity (acute): 0
[5]
  Hepatotoxicity (cytolytic): 0
[6]
  Hepatotoxicity (choleostasis): 0
[7]
  Hepatotoxicity (severe hepatitis): 0
[8]
  Hepatotoxicity (chronic liver disease): 0
[9]
  Hepatotoxicity (cirrhosis): 0
[10]
  Hepatotoxicity (granulomatous hepatitis): 0
[11]
  Hepatotoxicity (association with vascular disease): 0
[12]
  Hepatotoxicity (steatosis): 0
[13]
  Hepatotoxicity (malignant tumour): 0
[14]
  Hepatotoxicity (benign tumour): 0

## CCN1CCN(C(=O)N[C@@H](C(=O)N[C@]2(OC)C(=O)N3C(C(=O)O)=C(CSc4nnnn4C)CS[C@@H]32)[C@H](C)O)C(=O)C1=O [CEFBUPERAZONE]
[1]
  Hepatotoxicity (moderate): 6.4%
[2]
  Hepatotoxicity (acute): 0%
[3]
  Hepatotoxicity (moderate): 2
[4]
  Hepatotoxicity (acute): 0
[5]
  Hepatotoxicity (cytolytic): 0
[6]
  Hepatotoxicity (choleostasis): 0
[7]
  Hepatotoxicity (severe hepatitis): 0
[8]
  Hepatotoxicity (chronic liver disease): 0
[9]
  Hepatotoxicity (cirrhosis): 0
[10]
  Hepatotoxicity (granulomatous hepatitis): 0
[11]
  Hepatotoxicity (association with vascular disease): 0
[12]
  Hepatotoxicity (steatosis): 0
[13]
  Hepatotoxicity (malignant tumour): 0
[14]
  Hepatotoxicity (benign tumour): 0

## CO[C@H]1[C@@H](O)[C@H](N)[C@@H](O[C@H]2O[C@H]([C@H](C)N)CC[C@H]2N)[C@H](O)[C@@H]1N(C)C(=O)CN [ASTROMICIN]
[1]
  Hepatotoxicity (moderate): 7.3%
[2]
  Hepatotoxicity (acute): 0%
[3]
  Hepatotoxicity (moderate): 1
[4]
  Hepatotoxicity (acute): 0
[5]
  Hepatotoxicity (cytolytic): 0
[6]
  Hepatotoxicity (choleostasis): 0
[7]
  Hepatotoxicity (severe hepatitis): 0
[8]
  Hepatotoxicity (chronic liver disease): 0
[9]
  Hepatotoxicity (cirrhosis): 0
[10]
  Hepatotoxicity (granulomatous hepatitis): 0
[11]
  Hepatotoxicity (association with vascular disease): 0
[12]
  Hepatotoxicity (steatosis): 0
[13]
  Hepatotoxicity (malignant tumour): 0
[14]
  Hepatotoxicity (benign tumour): 0

## C[C@H]([C@](O)(Cn1cncn1)c1ccc(F)cc1F)S(C)(=O)=O [GENACONAZOLE]
[1]
  Hepatotoxicity (moderate): 33.3%
[2]
  Hepatotoxicity (acute): 0%
[3]
  Hepatotoxicity (moderate): 1
[4]
  Hepatotoxicity (acute): 0
[5]
  Hepatotoxicity (cytolytic): 0
[6]
  Hepatotoxicity (choleostasis): 0
[7]
  Hepatotoxicity (severe hepatitis): 0
[8]
  Hepatotoxicity (chronic liver disease): 0
[9]
  Hepatotoxicity (cirrhosis): 0
[10]
  Hepatotoxicity (granulomatous hepatitis): 0
[11]
  Hepatotoxicity (association with vascular disease): 0
[12]
  Hepatotoxicity (steatosis): 0
[13]
  Hepatotoxicity (malignant tumour): 0
[14]
  Hepatotoxicity (benign tumour): 0

## CCOC(=O)NC1=C(N2CC2)C(=O)C(NC(=O)OCC)=C(N2CC2)C1=O [DIAZIQUONE]
[1]
  Hepatotoxicity (moderate): 50%
[2]
  Hepatotoxicity (acute): 0%
[3]
  Hepatotoxicity (moderate): 5
[4]
  Hepatotoxicity (acute): 0
[5]
  Hepatotoxicity (cytolytic): 0
[6]
  Hepatotoxicity (choleostasis): 0
[7]
  Hepatotoxicity (severe hepatitis): 0
[8]
  Hepatotoxicity (chronic liver disease): 0
[9]
  Hepatotoxicity (cirrhosis): 0
[10]
  Hepatotoxicity (granulomatous hepatitis): 0
[11]
  Hepatotoxicity (association with vascular disease): 0
[12]
  Hepatotoxicity (steatosis): 0
[13]
  Hepatotoxicity (malignant tumour): 0
[14]
  Hepatotoxicity (benign tumour): 0

## CO[C@@]1(NC(=O)C2SC(=C(C(N)=O)C(=O)O)S2)C(=O)N2C(C(=O)O)=C(CSc3nnnn3C)CS[C@@H]21 (some centres undefined) [CEFOTETAN]
[1]
  Hepatotoxicity (moderate): 37.5%
[2]
  Hepatotoxicity (acute): 0%
[3]
  Hepatotoxicity (moderate): 10
[4]
  Hepatotoxicity (acute): 0
[5]
  Hepatotoxicity (cytolytic): 0
[6]
  Hepatotoxicity (choleostasis): 0
[7]
  Hepatotoxicity (severe hepatitis): 0
[8]
  Hepatotoxicity (chronic liver disease): 0
[9]
  Hepatotoxicity (cirrhosis): 0
[10]
  Hepatotoxicity (granulomatous hepatitis): 0
[11]
  Hepatotoxicity (association with vascular disease): 0
[12]
  Hepatotoxicity (steatosis): 0
[13]
  Hepatotoxicity (malignant tumour): 0
[14]
  Hepatotoxicity (benign tumour): 0
